According to patent US20220135547A1, “HETEROCYCLIC LOW-MOLECULAR SAPP MIMETICS, A PHARMACEUTICAL COMPOSITION AND METHODS FOR PRODUCING AND USING SAME” (priority 2010, published 2022):

System: 1-3 days old chicken memory
Experiment: one-trial passive avoidance learning task in chicks (weak training, test 24 hours after training)
Format: in vivo
Conditions: for dosage at which the maximum effect was observed: weak training, chicks
Protocol: The method of one-trial passive avoidance learning task has been used in order to investigate the compounds action on 1-3 days old chicken memory. This is the basic method using for investigation the mechanisms of memory formation. Cross chickens (males) “Ptichnoe” were used in experiments. The animals were delivered at the day of hatching and were kept in pairs in the cages which measured 20×25×20 cm, with constant access to water and feed, at a temperature 28° C. and a light cycle of 12:12 hours. The minimal adaptation time was two hours.
The compounds were dissolved in sterile saline. Intraperitoneal injections of 0.1 ml were used for systemic administration. Bilateral intracranial injections were administrated to the lateral ventricles with […] microsyringe («Hamilton») using plastic headholder. The volume of injections was […] for hemisphere. To control the localizations of injections the monitoring of the surface of skull and brain were carried out after the experiment and decapitation. Control groups received saline of the same volume.
The experiments were conducted according the following scheme: 20 minutes before training the animals were pretrained by being offered two neutral (wet with water) […] fixed to a rod. For further training chicks that pecked each bead within first 10 sec were used. Chicks were offered an aversive bead wet with pungent solution (10% solution of methylanthranilate in ethanol). […] Testing was conducted 24 hours after training by offering within 10 seconds a similar but dry aversive bead, and then—a neutral bead. The avoidance of aversive bead was estimated as a long-term memory.

[1] = administrated either immediately before training, or 4 hours after completion of the training

## COC(=O)c1ccc(C(NCCc2ccncc2)C(=O)NCCc2ccncc2)cc1 (stereo not drawn) [ACB-0002, Methyl 4-{2-oxo-1,2-bis[(2-pyridine-4-ylethyl)amino]ethyl}benzoate]
[1]
  effect on memory: may enhance memory

## O=C(NCCc1ccncc1)C(NCCc1ccncc1)c1ccc2c(c1)OCO2 (stereo not drawn) [ACB-0005, 2-(1,3-benzodioxole-5-yl)-N-(2-pyridine-4-ylethyl)-2-[(2-pyridine-4-ylethyl)-amino]acetamid]
10 min training (route not given)
  dosage at which the maximum effect was observed: 0.1 mg/kg
[1]
  effect on memory: may enhance memory
Equivalent of 0.1 mg/kg, 10 min training
  dosage at which the maximum effect was observed, per animal: 4 µg per animal
Intracranial injection 10-30 min before training
  dosage at which the maximum effect was observed: 5 mg
Oral administration 30 min before weak treatment, dosage 0.1 to 1.0 mg/kg
  effect on memory: stimulating effect on memory
